# Test results as given in ChEMBL document CHEMBL5260795, “Antifungal potential of marine natural products” (Eur J Med Chem, 2017).
# Columns and labels:
# Aspergillus flavus = test: Antifungal activity against Aspergillus flavus assessed as inhibition of fungal growth; format: functional, organism-based
# Aspergillus = test: Antimicrobial activity against Aspergillus; format: functional
# Pyricularia oryzae [1] = test: Antifungal activity against Pyricularia oryzae assessed as inhibition of fungal growth; format: functional
# Alternaria brassicae = test: Antifungal activity against Alternaria brassicae assessed as inhibition of fungal growth; format: functional
# Botrytis cinerea = test: Antifungal activity against Botrytis cinerea AJ 117140 assessed as inhibition of fungal growth; format: functional
# Globisporangium ultimum = test: Antifungal activity against Pythium ultimum IFO32210 assessed as inhibition of fungal growth; format: functional
# Saprolegnia parasitica = test: Antifungal activity against Saprolegnia parasitica IFO8978 assessed as inhibition of fungal growth; format: functional
# Pyricularia oryzae [2] = test: Antifungal activity against Pyricularia oryzae; format: functional
# Alternaria solani = test: Antifungal activity against Alternaria solani; format: functional
# Candida albicans [3] = test: Antifungal activity against amphotericin-B-resistant Candida albicans assessed as zone of inhibition 1 ug/disk; format: functional; details: dose 1 µg
# Candida albicans [4] = test: Antifungal activity against Candida albicans ATCC 24433; format: functional
# Candida albicans [5] = test: Antifungal activity against Candida albicans; format: functional, organism-based
# Trichophyton rubrum [6] = test: Antimicrobial activity against Trichophyton rubrum; format: functional, organism-based
# Cryptococcus neoformans [7] = test: Antifungal activity against Cryptococcus neoformans; format: functional, organism-based
# Saccharomyces cerevisiae [8] = test: Antifungal activity against Saccharomyces cerevisiae assessed as inhibition of fungal growth; format: functional, organism-based
# Candida tropicalis [9] = test: Antifungal activity against Candida tropicalis assessed as fungal growth inhibition; format: functional
# Nannizzia gypsea = test: Antifungal activity against Microsporum gypseum ATCC31388; format: functional
# Candida albicans [10] = test: Antifungal activity against Candida albicans ATCC76615 assessed as inhibition of fungal growth by atomatic microplate reader analysis; format: functional
# Cryptococcus neoformans [11] = test: Antifungal activity against Cryptococcus neoformans ATCC32609 assessed as inhibition of fungal growth by atomatic microplate reader analysis; format: functional
# Aspergillus fumigatus = test: Antifungal activity against clinical strain Aspergillus fumigatus assessed as inhibition of fungal growth by atomatic microplate reader analysis; format: functional
# Trichophyton rubrum [12] = test: Antifungal activity against Trichophyton rubrum assessed as inhibition of fungal growth by atomatic microplate reader analysis; format: functional
# Candida tropicalis [13] = test: Antifungal activity against clinical strain Candida tropicalis assessed as inhibition of fungal growth by atomatic microplate reader analysis; format: functional
# Pichia kudriavzevii = test: Antifungal activity against clinical strain Candida krusei assessed as inhibition of fungal growth by atomatic microplate reader analysis; format: functional
# Rhodotorula glutinis = test: Antimicrobial activity against Rhodotorula glutinis; format: functional
# Saccharomyces cerevisiae [14] = test: Antimicrobial activity against Saccharomyces cerevisiae; format: functional
# Candida albicans [15] = test: Antimicrobial activity against Candida albicans; format: functional
smiles,measurement,setting,value
CC[C@H](C)/C=C(C)/C=C/C1=CC2=C(Cl)C(=O)[C@@](C)(OC(C)=O)C(=O)C2=CO1,IC50,Aspergillus flavus,3.39 µg/mL
COc1c(Br)cc(Br)cc1Oc1c(O)cc(Br)cc1Br,MIC,Aspergillus,1.95 µg/mL
CC(C)=CCn1cc(CC2NC(=O)C(C(C)C)NC2=O)c2ccccc21 (configuration not stated),MIC,Pyricularia oryzae [1],0.127 µg/mL
COc1ccc2c(c1OC)O[C@]1(C(=O)N3O[C@@H]4C(=CC=C[C@H]4O)C[C@@]3(SC)C(=O)N1C)[C@@H]2SC,MIC,Alternaria brassicae,4 µg/mL
C=CC1OC1(C)CC(C)/C(C)=C/C=C(C)\C=C(OC)\C(=C/C(=O)OC)OC (configuration not stated),MIC,Botrytis cinerea,3.1 µg/mL
same,MIC,Globisporangium ultimum,0.4 µg/mL
same,MIC,Saprolegnia parasitica,0.1 µg/mL
CC1CC[C@@H](O)/C=C/CC[C@H](O)C[C@@H](O)C/C=C\C=C\[C@@H](O)C/C=C/C=C\C(=O)O1 (some centres not stated),MIC,Pyricularia oryzae [2],0.8 µg/mL
same,MIC,Alternaria solani,0.8 µg/mL
CCC(C)CC(C)[C@@H](O)[C@@H](C)C(=O)N[C@H](CN)C(=O)N[C@@H]([C@H](O)[C@H](O)C(=O)N[C@H](C(=O)N[C@H]1C(=O)N[C@H]([C@@H](C)O)C(=O)N[C@H](CCCN)C(=O)N[C@@H](CC(C)C)C(=O)N(C)[C@@H](CCC(N)=O)C(=O)NC(C(OC)C(N)=O)C(=O)N[C@H](CC(N)=O)C(=O)N(C)[C@@H](CC(C)C)C(=O)O[C@@H]1C)[C@@H](C)C(C)C(N)=O)C(C)(C)O (some centres not stated),inhibition zone (IZ),Candida albicans [3],8 mm
CO[C@H](c1ccc(O)cc1)[C@@H](NC(=O)[C@H](CCC(N)=O)NC(=O)[C@H](CC(C)C)NC(=O)[C@@H](CCCNC(=N)N)NC(=O)[C@H](NC(=O)[C@H](NC(=O)[C@@H](NC(=O)[C@H](O)[C@H](O)[C@H](CCCNC(=N)N)NC(=O)[C@@H](C)NC(=O)[C@H](C)[C@H](O)[C@H](C)CC(C)C)[C@@H](C)CC(N)=O)[C@@H](C)O)[C@@H](C)O)C(=O)N(C)[C@@H](C)C(=O)O,MIC,Candida albicans [4],0.15 µg/mL
C=C[C@@H]1C[C@H](C)C[C@H](C)[C@H]1c1c(O)ccn(O)c1=O,IC50,Candida albicans [5],6.9 µg/mL
same,IC50,Trichophyton rubrum [6],1.07 µg/mL
CCC(C)CC(C)/C=C(C)/C=C/CC(C)C(O)C(C)/C=C(C)/C=C/C(O)C(C)c1cc(O)c(C2OC(CO)CC(O)C2O)c(=O)o1 (configuration not stated),IC50,Cryptococcus neoformans [7],1.56 µg/mL
same,IC50,Saccharomyces cerevisiae [8],1.56 µg/mL
C=C(C)CCC[C@@]1(C)OC(=O)[C@]23CC=C4C(=CC[C@H]5C(C)(C)[C@@H](O[C@@H]6OC[C@@H](O[C@@H]7O[C@H](CO)[C@@H](O)[C@H](O[C@@H]8O[C@H](CO)[C@@H](O)[C@H](O)[C@H]8O)[C@H]7O)[C@H](O)[C@H]6O[C@@H]6O[C@H](CO)[C@@H](O[C@@H]7OC[C@@H](O)[C@H](O[C@@H]8O[C@H](CO)[C@@H](O)[C@H](OC)[C@H]8O)[C@H]7O)[C@H](O)[C@H]6O)CC[C@]45C)[C@@]2(C)CC(=O)[C@@H]13,MIC,Candida tropicalis [9],1.4 µM
same,MIC,Nannizzia gypsea,1.4 µM
CO[C@@H]1[C@@H](O)[C@H](O[C@@H]2[C@@H](O)[C@H](O[C@@H]3[C@@H](O)[C@H](O)[C@@H](O[C@H]4[C@H](O[C@H]5CC[C@@H]6C7=C[C@H](O)[C@]89C(=O)O[C@@](C)(CCCC(C)C)[C@H]8CC[C@@]9(C)[C@@H]7CC[C@H]6C5(C)C)OC[C@@H](O[C@@H]5O[C@H](CO)[C@@H](O)[C@H](O[C@@H]6O[C@H](CO)[C@@H](O)[C@H](OC)[C@H]6O)[C@H]5O)[C@@H]4O)O[C@H]3C)O[C@H](CO)[C@H]2O)O[C@H](CO)[C@H]1O,MIC,Candida albicans [10],0.7 µM
same,MIC,Cryptococcus neoformans [11],0.7 µM
same,MIC,Aspergillus fumigatus,0.7 µM
same,MIC,Trichophyton rubrum [12],0.7 µM
same,MIC,Candida tropicalis [13],0.7 µM
same,MIC,Pichia kudriavzevii,0.7 µM
CO[C@@H]1[C@@H](O)[C@H](O[C@@H]2[C@@H](O)[C@H](O[C@@H]3[C@@H](O)[C@H](O)[C@@H](O[C@H]4[C@H](O[C@H]5CC[C@@H]6C7=C[C@H](O)[C@]89C(=O)O[C@@](C)(CCC=C(C)C)[C@H]8CC[C@@]9(C)[C@@H]7CC[C@H]6C5(C)C)OC[C@@H](O[C@@H]5O[C@H](CO)[C@@H](O)[C@H](O[C@@H]6O[C@H](CO)[C@@H](O)[C@H](OC)[C@H]6O)[C@H]5O)[C@@H]4O)O[C@H]3C)O[C@H](CO)[C@H]2O)O[C@H](CO)[C@H]1O,MIC,Candida albicans [10],0.7 µM
same,MIC,Cryptococcus neoformans [11],0.7 µM
same,MIC,Aspergillus fumigatus,0.7 µM
same,MIC,Trichophyton rubrum [12],0.7 µM
same,MIC,Candida tropicalis [13],0.7 µM
same,MIC,Pichia kudriavzevii,0.7 µM
CO[C@H]1C(=O)N[C@]2(O)CC(=O)N(C)CC(=O)N[C@H](Cc3c[nH]c4cc(Cl)ccc34)C(=O)NCC(=O)NC[C@H](O)CC(=O)N[C@H]([C@@H](O)[C@@H](O)C/C=C/C=C/c3ccccc3)[C@@H](O)C(=O)N[C@@H]12,MIC,Rhodotorula glutinis,0.6 µg/mL
same,MIC,Saccharomyces cerevisiae [14],1.6 µg/mL
same,MIC,Candida albicans [15],3.1 µg/mL
